# Test results taken from patent US10689362B2, “Quinoxaline compounds as type III receptor tyrosine kinase inhibitors” (Development Center for Biotechnology, priority 2016, dated 2020).
# pIC50: −log10 of the molar value.
# Legend:
# CSF-1R kinase = CSF-1R kinase (Homo sapiens (Human), UniProt P07333); assay: CSF-1R kinase assay (AlphaScreen); assay type: biochemical; details: class symbol
# Description: Inhibition of CSF-1R kinase activity by a test compound disclosed herein was estimated by AlphaScreen (PerkinElmer). […] Reactions were incubated at 30° C. for 45 min and stopped by adding 5 μL of 50 mM EDTA. Analysis of resulting product using an AlphaScreen kit, and counted with Enspire Alpha (PerkinElmer). […] The IC50 values of quinoxaline compounds of this invention against CSF-1R kinase were determined using the GraphPad Prism 5 software.
# c-KIT kinase = c-KIT kinase (Homo sapiens (Human), UniProt P10721); assay: c-KIT kinase assay (radiometric); assay type: biochemical; details: class symbol
# In short: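 Recombinant c-Kit (20 ng) with 2 μg Poly-(Glu4:Tyr1) in MOPS pH 7.0 buffer with MgCl2/MnCl2, 10 μM ATP plus [^33P]-ATP, 4% DMSO final, 60 min at 30° C. Stopped with phosphoric acid, filter-captured and scintillation counted; IC50 from curve fit.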
# FLT3 kinase = FLT3 kinase (Homo sapiens (Human), UniProt P36888); assay: FLT3 kinase assay (radiometric); assay type: biochemical; details: bound
# In short: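 Recombinant FLT3 (5 ng) phosphorylating poly(Glu4:Tyr1) (2 μg) with 10 μM ATP plus [^33P]-ATP in MOPS pH 7.0 buffer, 4% DMSO final, 60 min at 30° C. Reaction stopped with phosphoric acid, filter-captured and scintillation-counted; IC50 derived from dose-response.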
# PDGFRβ kinase = PDGFRβ kinase (Homo sapiens (Human), UniProt P09619); assay: PDGFRβ kinase assay (radiometric); assay type: biochemical; details: bound
# In short: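 Radiometric assay: recombinant PDGFRβ with poly(Glu4:Tyr1) in MOPS pH 7.0 buffer containing Mg2+/Mn2+, 10 μM ATP plus [33P]-ATP, and compound at 4% DMSO final. Incubated 60 min at 30° C, stopped with phosphoric acid, filter-captured and scintillation-counted. IC50 from curve fitting.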
# [1] = tested on: CSF-1-dependent M-NFS-60 mouse myeloid leukemia cell; assay: M-NFS-60 cell proliferation assay (CellTiter-96); assay type: cell-based; details: Cytotoxicity, M-NFS-60 cells, 72 hours
# In short: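 Growth inhibition was measured as absorbance at 490 nm after 4 h with CellTiter 96 AQueous One reagent. Beforehand, M-NFS-60 cells (2000/well, CSF-1-dependent) were treated with a compound dilution series for 72 h following overnight plating at 37 °C, 5% CO2.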
# [2] = tested on: MV4-11 human acute myeloid leukemia cell with FLT3-ITD mutation; assay: MV4-11 cell proliferation assay (CellTiter-96); assay type: cell-based; details: Cytotoxicity, MV4-11 cells, 72 hours
# In short: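 Growth inhibition read as absorbance at 490 nm after 4 hours with CellTiter96 AQueous One reagent. Before that, FLT3-ITD-dependent MV4-11 cells (6500 cells/well, overnight at 37° C., 5% CO2) received a rising compound concentration series for 72 hours.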
# [3] = tested on: Kasumi-1 human acute myeloid leukemia cell with c-KIT N822K activating mutation; assay: Kasumi-1 cell proliferation assay (CellTiter-96); assay type: cell-based; details: Cytotoxicity, Kasumi-1 cells, 72 hours
# In short: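 After 72 h of treatment with a compound dilution series, growth of c-KIT N822K-driven Kasumi-1 cells (64000 per well, plated the day before) was read as 490 nm absorbance. This followed a 4 h incubation with CellTiter96 AQueous One reagent.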
# [4] = tested on: THP-1 human acute monocytic leukemia cell harboring NRAS G12D mutation; assay: THP-1 cell proliferation assay (counter screen, CellTiter-96); assay type: cell-based; details: Cytotoxicity, THP-1 cells (counter screen), 72 hours
# In short: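 Growth inhibition read as 490 nm absorbance after 4 h with CellTiter96 AQueous One reagent, following 72 h compound exposure at rising concentrations. THP-1 (NRAS G12D) cells plated at 5000 per well and left overnight at 37 °C, 5% CO2 before dosing.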
# [5] = tested on: osteoclast precursors (osteoclast differentiation); assay: Osteoclast tartrate-resistant acid phosphatase assay; assay type: cell-based; details: 168 h, at 1 μM treatment, 7 days, RANKL and M-CSF, read-out: inhibition activity against osteoclast differentiation
# In short: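 Differentiation inhibition was scored at 1 μM compound in duplicate, using supernatant TRAP activity read at 550 nm with an acid phosphatase kit.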
# Chain of c-KIT kinase (P10721 26-976): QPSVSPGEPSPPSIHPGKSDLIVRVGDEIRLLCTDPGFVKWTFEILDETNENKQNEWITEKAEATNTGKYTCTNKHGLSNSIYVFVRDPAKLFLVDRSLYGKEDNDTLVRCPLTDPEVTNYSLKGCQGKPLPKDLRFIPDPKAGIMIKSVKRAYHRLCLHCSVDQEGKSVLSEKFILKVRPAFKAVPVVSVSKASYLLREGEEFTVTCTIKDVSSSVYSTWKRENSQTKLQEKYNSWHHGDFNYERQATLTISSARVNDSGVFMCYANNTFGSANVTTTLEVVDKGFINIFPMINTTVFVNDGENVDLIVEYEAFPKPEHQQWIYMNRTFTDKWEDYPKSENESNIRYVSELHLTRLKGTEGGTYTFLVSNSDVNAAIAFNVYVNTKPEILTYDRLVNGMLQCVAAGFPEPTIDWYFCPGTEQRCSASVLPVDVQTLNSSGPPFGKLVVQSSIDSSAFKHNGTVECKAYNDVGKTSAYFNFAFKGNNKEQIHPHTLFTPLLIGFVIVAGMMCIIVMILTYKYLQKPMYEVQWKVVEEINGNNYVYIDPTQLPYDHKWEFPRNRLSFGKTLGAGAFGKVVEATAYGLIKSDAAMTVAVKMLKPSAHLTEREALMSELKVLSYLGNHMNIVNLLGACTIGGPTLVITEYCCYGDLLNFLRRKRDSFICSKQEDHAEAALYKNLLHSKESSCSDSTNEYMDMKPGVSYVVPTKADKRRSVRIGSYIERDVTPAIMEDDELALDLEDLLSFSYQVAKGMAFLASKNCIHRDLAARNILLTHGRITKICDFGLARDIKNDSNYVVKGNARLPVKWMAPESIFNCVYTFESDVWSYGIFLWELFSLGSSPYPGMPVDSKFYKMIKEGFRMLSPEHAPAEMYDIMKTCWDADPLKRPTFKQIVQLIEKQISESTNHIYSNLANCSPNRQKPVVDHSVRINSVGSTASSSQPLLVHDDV
# Chain of PDGFRβ kinase (P09619 33-1106): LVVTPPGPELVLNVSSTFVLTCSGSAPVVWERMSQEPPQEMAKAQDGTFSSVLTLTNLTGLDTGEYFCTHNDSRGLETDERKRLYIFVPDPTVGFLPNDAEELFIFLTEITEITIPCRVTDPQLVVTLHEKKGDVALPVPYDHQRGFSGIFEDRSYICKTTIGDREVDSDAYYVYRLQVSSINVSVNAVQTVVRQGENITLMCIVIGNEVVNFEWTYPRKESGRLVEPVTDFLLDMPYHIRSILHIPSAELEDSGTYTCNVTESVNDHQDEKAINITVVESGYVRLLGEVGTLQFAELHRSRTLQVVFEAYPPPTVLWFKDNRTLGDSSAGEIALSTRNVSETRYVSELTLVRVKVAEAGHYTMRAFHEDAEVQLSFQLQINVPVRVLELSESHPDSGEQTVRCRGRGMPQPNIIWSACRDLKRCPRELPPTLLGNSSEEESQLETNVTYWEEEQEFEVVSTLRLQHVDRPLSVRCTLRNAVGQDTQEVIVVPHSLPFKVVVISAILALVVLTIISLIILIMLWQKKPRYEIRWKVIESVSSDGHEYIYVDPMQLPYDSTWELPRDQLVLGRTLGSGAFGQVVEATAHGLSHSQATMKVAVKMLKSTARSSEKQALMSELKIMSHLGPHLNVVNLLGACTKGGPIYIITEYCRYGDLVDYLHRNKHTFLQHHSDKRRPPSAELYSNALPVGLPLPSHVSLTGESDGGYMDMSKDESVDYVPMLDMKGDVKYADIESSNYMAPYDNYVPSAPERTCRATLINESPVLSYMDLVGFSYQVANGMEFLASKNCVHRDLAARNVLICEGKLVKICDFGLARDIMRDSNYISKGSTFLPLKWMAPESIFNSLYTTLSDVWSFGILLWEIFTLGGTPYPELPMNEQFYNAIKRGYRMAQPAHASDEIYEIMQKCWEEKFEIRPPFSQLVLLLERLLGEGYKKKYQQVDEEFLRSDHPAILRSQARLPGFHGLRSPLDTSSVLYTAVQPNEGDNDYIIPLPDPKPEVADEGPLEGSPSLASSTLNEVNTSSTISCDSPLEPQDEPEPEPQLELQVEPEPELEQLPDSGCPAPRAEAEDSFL
# Chain of FLT3 kinase (P36888 27-993): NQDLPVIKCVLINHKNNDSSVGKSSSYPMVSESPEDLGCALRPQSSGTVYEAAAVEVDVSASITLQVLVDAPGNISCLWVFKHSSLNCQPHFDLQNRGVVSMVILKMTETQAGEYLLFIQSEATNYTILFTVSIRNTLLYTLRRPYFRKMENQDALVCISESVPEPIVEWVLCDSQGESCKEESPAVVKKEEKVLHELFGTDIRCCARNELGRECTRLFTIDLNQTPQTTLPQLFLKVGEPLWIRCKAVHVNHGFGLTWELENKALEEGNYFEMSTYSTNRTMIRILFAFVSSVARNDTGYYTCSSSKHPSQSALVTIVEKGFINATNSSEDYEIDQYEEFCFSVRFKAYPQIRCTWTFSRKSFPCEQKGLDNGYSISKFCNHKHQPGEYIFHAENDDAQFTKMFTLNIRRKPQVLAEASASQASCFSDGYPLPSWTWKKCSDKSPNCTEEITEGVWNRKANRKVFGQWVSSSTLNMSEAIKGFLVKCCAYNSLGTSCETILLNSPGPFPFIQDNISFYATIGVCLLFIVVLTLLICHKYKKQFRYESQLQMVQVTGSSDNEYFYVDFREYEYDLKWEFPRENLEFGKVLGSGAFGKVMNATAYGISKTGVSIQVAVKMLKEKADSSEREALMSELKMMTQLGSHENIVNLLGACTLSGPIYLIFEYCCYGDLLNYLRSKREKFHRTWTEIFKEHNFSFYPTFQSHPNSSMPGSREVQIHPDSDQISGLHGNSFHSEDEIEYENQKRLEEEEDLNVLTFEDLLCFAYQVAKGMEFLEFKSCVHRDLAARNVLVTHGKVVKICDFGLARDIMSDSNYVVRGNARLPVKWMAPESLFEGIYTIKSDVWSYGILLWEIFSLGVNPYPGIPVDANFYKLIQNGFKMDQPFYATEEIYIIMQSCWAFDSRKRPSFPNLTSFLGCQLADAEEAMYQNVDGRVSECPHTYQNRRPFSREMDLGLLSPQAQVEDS
# Chain of CSF-1R kinase (P07333 20-972): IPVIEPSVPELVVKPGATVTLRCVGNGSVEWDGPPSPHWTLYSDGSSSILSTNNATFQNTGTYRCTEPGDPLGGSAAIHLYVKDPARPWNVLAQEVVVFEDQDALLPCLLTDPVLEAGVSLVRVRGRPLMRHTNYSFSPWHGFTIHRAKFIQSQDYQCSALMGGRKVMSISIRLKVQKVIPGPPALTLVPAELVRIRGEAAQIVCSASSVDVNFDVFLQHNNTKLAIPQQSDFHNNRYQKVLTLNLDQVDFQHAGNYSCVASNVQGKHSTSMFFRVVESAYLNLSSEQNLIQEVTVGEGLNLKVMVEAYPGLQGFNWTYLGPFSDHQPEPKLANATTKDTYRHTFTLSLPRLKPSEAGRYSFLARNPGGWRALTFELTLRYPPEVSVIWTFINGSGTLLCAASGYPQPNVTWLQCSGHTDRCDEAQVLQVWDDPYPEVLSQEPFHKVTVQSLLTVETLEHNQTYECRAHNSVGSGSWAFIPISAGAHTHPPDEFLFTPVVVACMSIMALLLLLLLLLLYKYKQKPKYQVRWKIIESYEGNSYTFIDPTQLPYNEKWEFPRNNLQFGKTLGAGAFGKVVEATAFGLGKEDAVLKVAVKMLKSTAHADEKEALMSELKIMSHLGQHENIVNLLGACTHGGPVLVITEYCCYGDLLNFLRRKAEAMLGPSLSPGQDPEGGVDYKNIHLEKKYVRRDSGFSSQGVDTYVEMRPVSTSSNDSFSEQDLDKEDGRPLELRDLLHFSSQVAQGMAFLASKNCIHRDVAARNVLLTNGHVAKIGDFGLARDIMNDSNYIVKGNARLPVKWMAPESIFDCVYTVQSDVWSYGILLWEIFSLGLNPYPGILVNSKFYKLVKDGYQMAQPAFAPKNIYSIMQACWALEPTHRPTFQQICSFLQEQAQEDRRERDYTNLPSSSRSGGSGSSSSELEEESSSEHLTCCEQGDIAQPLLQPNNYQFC
SMILES,pIC50 (CSF-1R kinase),pIC50 (c-KIT kinase),pIC50 (FLT3 kinase),pIC50 (PDGFRβ kinase),pIC50 [1],pIC50 [2],pIC50 [3],pIC50 [4],inhibition at 1 µM [5] [%]
"COc1cc(Nc2ccc3ncc(N4CCOCC4)nc3c2C#N)ccc1OCc1ccc(C2CC2)nc1 [Example 120, 6-((4-((6-cyclopropylpyridin-3-yl)methoxy)-3-methoxy-phenyl)amino)-3-morpholinoquinoxaline-5-carbonitrile]",> 7.00,> 7.00,< 6.00,< 6.00,> 6.52,< 5.00,> 6.52,< 5.00,> 50
"COc1cc(Nc2ccc3ncc(N4CCOCC4)nc3c2C#N)ccc1OCc1ccsc1 [Example 126, 6-((3-methoxy-4-(thiophen-3-ylmethoxy)phenyl)amino)-3-morpholinoquinoxaline-5-carbonitrile]",> 7.00,> 7.00,< 6.00,< 6.00,6.00 to 6.52,5.00 to 6.00,> 6.52,< 5.00,> 50
"COc1cc(N(C)c2ccc3ncc(N4CCOCC4)nc3c2C#N)ccc1OCc1ccc(C)nc1 [Example 129, 6-((3-methoxy-4-((6-methylpyridin-3-yl)methoxy)phenyl)(methyl)amino)-3-morpholinoquinoxaline-5-carbonitrile]",> 7.00,6.00 to 6.52,< 6.00,< 6.00,6.00 to 6.52,5.00 to 6.00,5.00 to 6.00,< 5.00,> 50
"COc1cc(N(C)c2ccc3ncc(N4CCOCC4)nc3c2C#N)ccc1OCc1ccc(C2CC2)nc1 [Example 130, 6-((4-((6-cyclopropylpyridin-3-yl)methoxy)-3-methoxyphenyl)(methyl)amino)-3-morpholinoquinoxaline-5-carbonitrile]",> 7.00,> 7.00,< 6.00,< 6.00,> 6.52,5.00 to 6.00,6.00 to 6.52,< 5.00,> 50
"COc1cc(Nc2ccc3ncc(N4CCOCC4)nc3c2C#N)ccc1OCc1cnn(CCF)c1 [Example 131, 6-((4-((1-(2-fluoroethyl)-1H-pyrazol-4-yl)methoxy)-3-methoxyphenyl)amino)-3-morpholinoquinoxaline-5-carbonitrile]",> 7.00,6.00 to 6.52,< 6.00,< 6.00,> 6.52,< 5.00,< 5.00,< 5.00,> 50
"COc1cc(Nc2ccc3ncc(N(C)C)nc3c2C#N)ccc1OCc1ccc(C)nc1 [Example 133, 3-(dimethylamino)-6-((3-methoxy-4-((6-methylpyridin-3-yl)methoxy)phenyl)amino)quinoxaline-5-carbonitrile]",> 7.00,> 7.00,< 6.00,< 6.00,> 6.52,< 5.00,6.00 to 6.52,< 5.00,> 50
"COc1cc(Nc2ccc3ncc(N4CCOCC4)nc3c2C(N)=O)ccc1OCc1ccc(C)nc1 [Example 135, 6-((3-methoxy-4-((6-methylpyridin-3-yl)methoxy)phenyl)amino)-3-morpholinoquinoxaline-5-carboxamide]",> 7.00,> 7.00,< 6.00,< 6.00,> 6.52,5.00 to 6.00,> 6.52,< 5.00,> 50

# Now from value to compound, other results behind:
pIC50 (CSF-1R kinase),pIC50 (c-KIT kinase),pIC50 (FLT3 kinase),pIC50 (PDGFRβ kinase),SMILES,pIC50 [1],pIC50 [2],pIC50 [3],pIC50 [4],inhibition at 1 µM [5] [%]
> 7.00,6.52 to 7.00,< 6.00,< 6.00,"CCn1cc(COc2ccc(Nc3ccc4ncc(N5CCOCC5)nc4c3C#N)cc2OC)cn1 [Example 116, 6-((3-methoxy-4-((1-ethyl-1H-pyrazol-4-yl)methoxy)phenyl)amino)-3-morpholinoquinoxaline-5-carbonitrile]",> 6.52,5.00 to 6.00,6.00 to 6.52,< 5.00,> 50
> 7.00,6.52 to 7.00,< 6.00,< 6.00,"COc1ccc(COc2ccc(Nc3ccc4ncc(N5CCN(C6CC6)CC5)nc4c3C#N)cc2OC)cn1 [Example 118, 3-(4-cyclopropylpiperazin-1-yl)-6-((3-methoxy-4-((6-methoxypyridin-3-yl)methoxy)phenyl)amino)quinoxaline-5-carbonitrile]",> 6.52,< 5.00,5.00 to 6.00,< 5.00,> 50
> 7.00,> 7.00,< 6.00,< 6.00,"COc1cc(Nc2ccc3ncc(N4CCOCC4)nc3c2C#N)ccc1OCc1ccc(C)s1 [Example 124, 6-((3-methoxy-4-((5-methylthiophen-2-yl)methoxy)phenyl)amino)-3-morpholinoquinoxaline-5-carbonitrile]",> 6.52,5.00 to 6.00,6.00 to 6.52,5.00 to 6.00,> 50
> 7.00,> 7.00,< 6.00,< 6.00,"COCc1ccc(COc2ccc(Nc3ccc4ncc(N5CCOCC5)nc4c3C#N)cc2OC)nc1 [Example 125, 6-((3-methoxy-4-((5-(methoxymethyl)pyridin-2-yl)methoxy)phenyl)amino)-3-morpholinoquinoxaline-5-carbonitrile]",5.00 to 6.00,< 5.00,> 6.52,< 5.00,> 50
> 7.00,> 7.00,< 6.00,< 6.00,"COc1cc(Nc2ccc3ncc(N4CCOCC4)nc3c2C#N)ccc1OCc1cccs1 [Example 127, 6-((3-methoxy-4-(thiophen-2-ylmethoxy)phenyl)amino)-3-morpholinoquinoxaline-5-carbonitrile]",5.00 to 6.00,5.00 to 6.00,6.00 to 6.52,< 5.00,> 50
> 7.00,6.00 to 6.52,< 6.00,< 6.00,"COc1ccc(COc2ccc(Nc3ccc4ncc(N5CCOCC5)nc4c3C#N)cc2OC)nc1 [Example 132, 6-((3-methoxy-4-((5-methoxypyridin-2-yl)methoxy)phenyl)amino)-3-morpholinoquinoxaline-5-carbonitrile]",6.00 to 6.52,< 5.00,< 5.00,< 5.00,> 50
> 7.00,> 7.00,< 6.00,< 6.00,"COc1cc(Nc2ccc3ncc(N4CC(N(C)C)C4)nc3c2C#N)ccc1OCc1ccc(C)nc1 [Example 136, 3-(3-(dimethylamino)azetidin-1-yl)-6-((3-methoxy-4-((6-methylpyridin-3-yl)methoxy)phenyl)amino)quinoxaline-5-carbonitrile]",6.00 to 6.52,5.00 to 6.00,5.00 to 6.00,< 5.00,> 50
> 7.00,> 7.00,< 6.00,< 6.00,"COc1ccc(COc2ccc(Nc3ccc4ncc(N(C)C)nc4c3C#N)cc2OC)cn1 [Example 137, 3-(dimethylamino)-6-((3-methoxy-4-((6-methoxypyridin-3-yl)methoxy)phenyl)amino)quinoxaline-5-carbonitrile]",> 6.52,5.00 to 6.00,6.00 to 6.52,< 5.00,> 50
